Legend:
[1] = target: skeletal myofibrils (myosin ATPase); experiment: Skeletal Myofibril ATPase Assay; type: biochemical
Protocol: FIG. 7 depicts the buffer preparation procedures of Buffer A and Buffer B for the skeletal myofibril ATPase assay described in Example 12. Buffers were stored on ice until use.
Example 12: Skeletal Myofibril ATPase Assay
(§1) Overview: Myosin ATPase activity is assessed by using a coupled reaction system, in which ADP generated by the myosin ATPase function is coupled to the disappearance of NADH through the pyruvate kinase/lactate dehydrogenase (PK-LDH) system. ATPase activity produces ADP, which is used as a substrate for PK to produce pyruvate and regenerate ATP. The pyruvate is then used as a substrate by LDH to oxidize NADH to NAD+. The rate of the reaction is monitored through the time-dependent disappearance of NADH using absorbance at 340 nm. Inhibition of ATPase activity by the assayed compounds is indicated by a reduced rate of NADH loss, relative to vehicle-treated controls, over the experimental time window. To assess the selectivity of the assayed compounds for skeletal myofibrils, the compounds are counter-screened in cardiac myofibrils.
Materials: The following stock solutions and reagents were used in the Skeletal Myofibril ATPase Assay:
Stock Solutions of pCa buffer. Combine PIPES, CaCl2, and EGTA solutions with 70 mL of water. Adjust pH to 7.0 and bring final volume to 100 mL.
Skeletal Myofibril ATPase Assay Procedure: BSA, ATP, NADH, PEP, and DTT solutions were thawed at room temperature, then transferred to ice. Pellet-frozen myofibrils were transferred with approximately twice the required volume into a sufficiently large tube and capped. Myofibrils were thawed by rolling in a water bath for approximately 15 min at room temperature and cooled on ice. Buffers A and B were prepared by adjusting volumes as necessary for required number of wells and stored on ice. 0.5 μL of the compounds to be assayed were added into wells. 25 μL of Buffer A was dispensed into the wells, followed by 25 μL of Buffer B. The wells were measured for absorbance at 340 nm, using a kinetic protocol in which the wells are read every 1.5-2 min for 45 min. The slope of the data was approximated by subtracting the minimum absorbance value from the maximum value for each well. This was accomplished either in the SoftMax Pro software or in a spreadsheet program such as Excel. Using GraphPad Prism 8.0, the data was normalized by assigning a value of 100% to the 1% DMSO vehicle wells. Typically, a normalized 0% value was simply assigned to a (Max−Min) value of 0. The normalized data was fit to a Four Parameter Logistic sigmoidal equation, constraining the bottom to be 0 or greater. Compounds of Table 1, 2, and 3 were tested and results of the assay appear in Tables 4a-4c. A=IC50 is less than or equal to 10 μM; B=IC50 is greater than 10 μM and less than 100 μM; C=IC50 is greater than 100 μM.

[2] = target: T1, cardiac myofibrils (myosin ATPase); experiment: Cardiac Myofibril ATPase Assay (counter screen); type: biochemical; conditions: myofibrils 1.0 mg/mL, KCl omitted
T1 construct: frozen myofibril pellets obtained from cardiac tissue; from tissue
T1 sequence (P12883 whole entry): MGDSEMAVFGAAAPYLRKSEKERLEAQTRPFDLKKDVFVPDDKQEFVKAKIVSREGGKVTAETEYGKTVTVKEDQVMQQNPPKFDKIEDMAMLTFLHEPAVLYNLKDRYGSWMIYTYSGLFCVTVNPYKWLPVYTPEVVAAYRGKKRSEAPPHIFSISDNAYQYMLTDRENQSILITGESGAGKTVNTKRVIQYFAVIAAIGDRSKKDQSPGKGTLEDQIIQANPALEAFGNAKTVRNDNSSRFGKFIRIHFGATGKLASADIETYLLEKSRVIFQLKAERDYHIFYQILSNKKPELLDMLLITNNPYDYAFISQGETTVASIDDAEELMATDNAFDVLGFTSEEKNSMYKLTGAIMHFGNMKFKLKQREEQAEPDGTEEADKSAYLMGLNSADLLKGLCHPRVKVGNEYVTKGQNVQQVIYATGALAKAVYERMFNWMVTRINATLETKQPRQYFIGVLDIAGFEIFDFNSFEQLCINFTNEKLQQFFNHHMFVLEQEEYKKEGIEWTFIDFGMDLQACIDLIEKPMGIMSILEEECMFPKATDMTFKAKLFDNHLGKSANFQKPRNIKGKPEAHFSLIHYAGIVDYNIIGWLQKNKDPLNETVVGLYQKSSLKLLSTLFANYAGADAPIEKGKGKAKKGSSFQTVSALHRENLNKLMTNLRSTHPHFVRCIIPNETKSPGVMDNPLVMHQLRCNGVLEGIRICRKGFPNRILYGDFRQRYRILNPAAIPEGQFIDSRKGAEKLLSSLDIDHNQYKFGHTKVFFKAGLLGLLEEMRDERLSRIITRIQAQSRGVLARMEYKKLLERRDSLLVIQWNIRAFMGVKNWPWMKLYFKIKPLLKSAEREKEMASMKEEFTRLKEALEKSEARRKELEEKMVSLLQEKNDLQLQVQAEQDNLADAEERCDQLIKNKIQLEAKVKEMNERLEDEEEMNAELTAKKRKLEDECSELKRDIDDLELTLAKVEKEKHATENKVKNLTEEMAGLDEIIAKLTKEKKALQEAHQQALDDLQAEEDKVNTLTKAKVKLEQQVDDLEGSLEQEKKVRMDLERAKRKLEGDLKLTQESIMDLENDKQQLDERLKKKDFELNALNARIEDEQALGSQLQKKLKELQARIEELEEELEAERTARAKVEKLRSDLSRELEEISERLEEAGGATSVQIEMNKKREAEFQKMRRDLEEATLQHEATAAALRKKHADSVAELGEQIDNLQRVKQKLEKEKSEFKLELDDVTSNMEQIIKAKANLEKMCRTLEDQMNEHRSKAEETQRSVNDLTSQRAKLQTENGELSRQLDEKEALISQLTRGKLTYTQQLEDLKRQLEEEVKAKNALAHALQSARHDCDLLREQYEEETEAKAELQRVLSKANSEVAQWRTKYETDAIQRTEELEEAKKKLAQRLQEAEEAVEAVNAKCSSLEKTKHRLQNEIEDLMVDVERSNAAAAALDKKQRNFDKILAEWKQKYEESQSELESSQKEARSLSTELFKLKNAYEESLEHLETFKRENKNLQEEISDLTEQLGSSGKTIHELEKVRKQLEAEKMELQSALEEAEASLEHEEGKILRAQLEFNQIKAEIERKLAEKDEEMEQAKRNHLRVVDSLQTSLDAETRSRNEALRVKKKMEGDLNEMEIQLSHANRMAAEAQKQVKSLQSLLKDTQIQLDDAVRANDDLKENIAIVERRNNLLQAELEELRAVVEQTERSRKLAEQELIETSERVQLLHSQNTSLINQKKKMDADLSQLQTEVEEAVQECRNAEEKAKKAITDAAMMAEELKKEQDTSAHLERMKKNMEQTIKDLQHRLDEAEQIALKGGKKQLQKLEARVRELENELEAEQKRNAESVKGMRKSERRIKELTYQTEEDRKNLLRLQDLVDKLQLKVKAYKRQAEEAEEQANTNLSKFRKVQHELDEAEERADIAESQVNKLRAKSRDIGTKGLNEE
T1 sequence (P08590 whole entry partner): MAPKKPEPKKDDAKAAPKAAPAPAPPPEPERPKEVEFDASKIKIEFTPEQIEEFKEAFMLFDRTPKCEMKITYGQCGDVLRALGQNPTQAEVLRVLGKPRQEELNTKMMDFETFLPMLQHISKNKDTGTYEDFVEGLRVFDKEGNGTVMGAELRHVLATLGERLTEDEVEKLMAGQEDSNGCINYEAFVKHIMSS
T1 sequence (P10916 whole entry partner): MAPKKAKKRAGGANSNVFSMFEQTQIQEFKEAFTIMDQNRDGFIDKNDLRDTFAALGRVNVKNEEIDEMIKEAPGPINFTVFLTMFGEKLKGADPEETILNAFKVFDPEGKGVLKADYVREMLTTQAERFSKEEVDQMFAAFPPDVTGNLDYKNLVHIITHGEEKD
Protocol: as §1
Example 13: Cardiac Myofibril ATPase Assay
Following example 11, the counter screen was done using frozen myofibril pellets obtained from cardiac tissue. The assay was done in the same manner as above, with the following notable exceptions: the final well concentration of myofibrils was 1.0 mg/mL and KCl was omitted from the recipe.
Compounds of Table 1 to 3 were tested, and results of the assays appear in Tables 5a-5c herein. A=IC50 is less than or equal to 10 μM; B=IC50 is greater than 10 μM and less than 100 μM; C=IC50 is greater than 100 μM; and […].

Compound | IC50 ([1]; Table 4C) | IC50 ([2]; Table 5C) | IC50 ([1]; Table 4A) | also measured
COc1ccc(-c2ccc(=O)n(CC(=O)N(C)c3ccccc3)n2)cc1 [IIIc-7, 2-(3-(4-methoxyphenyl)-6-oxopyridazin-1(6H)-yl)-N-methyl-N-phenylacetamide] | 10 to 100 µM | > 100 µM |  | 
COc1ccc(-c2ccc(=O)n(CC(=O)Nc3ccc(Cl)cc3Cl)n2)cc1 [IIIb-11, N-(2,4-dichlorophenyl)-2-(3-(4-methoxyphenyl)-6-oxopyridazin-1(6H)-yl)acetamide] | < 10 µM | > 100 µM |  | 
COc1ccc(-c2ccc(=O)n(CC(=O)NCc3cc(F)ccc3Cl)n2)cc1 [IIIa-7, N-(2-chloro-5-fluorobenzyl)-2-(3-(4-methoxyphenyl)-6-oxopyridazin-1(6H)-yl)acetamide] | < 10 µM | > 100 µM |  | 
CC(C)[C@@](C)(C#N)NC(=O)Cn1nc(-c2ccc(OC(F)F)nc2)ccc1=O (stereo in doubt) [Compound I-34, N-(2-cyano-3-methylbutan-2-yl)-2-(3-(6-(difluoromethoxy)pyridin-3-yl)-6-oxopyridazin-1(6H)-yl)acetamide] |  |  | 10 to 100 µM | IC50 ([2]; Table 5A): > 100 µM
CN(Cc1ccccc1)C(=O)Cn1nc(-c2ccc(Cl)cc2)ccc1=O [IIIc-32, N-benzyl-2-(3-(4-chlorophenyl)-6-oxopyridazin-1(6H)-yl)-N-methylacetamide] | 10 to 100 µM | > 100 µM |  | 
COc1ccc(-c2ccc(=O)n(CC(=O)NCc3ccccc3C(F)(F)F)n2)cc1 [IIIa-11, 2-(3-(4-methoxyphenyl)-6-oxopyridazin-1(6H)-yl)-N-(2-(trifluoromethyl)benzyl)acetamide] | < 10 µM | > 100 µM |  | 
Cc1ccc(-c2ccc(=O)n(CC(=O)NC3CCCCC3)n2)cc1 [IIIc-6, N-cyclohexyl-2-(6-oxo-3-(p-tolyl)pyridazin-1(6H)-yl)acetamide] | 10 to 100 µM | > 100 µM |  | 
Cc1ccc(-c2ccc(=O)n(CC(=O)NC3CCCC3)n2)cc1 [IIIc-5, N-cyclopentyl-2-(6-oxo-3-(p-tolyl)pyridazin-1(6H)-yl)acetamide] | 10 to 100 µM | > 100 µM |  | 
CCNC(=O)Cn1nc(-c2ccc(NC34CC(C)(C3)C4)nc2)ccc1=O [Compound I-60, N-ethyl-2-(3-(6-((3-methylbicyclo[1.1.1]pentan-1-yl)amino)pyridin-3-yl)-6-oxopyridazin-1(6H)-yl)acetamide] |  |  | < 10 µM | IC50 ([2]; Table 5A): > 100 µM
CCNC(=O)Cn1nc(-c2cnc(Nc3ccc(F)cc3)nc2)ccc1=O [Compound I-2, N-ethyl-2-(3-(2-((4-fluorophenyl)amino)pyrimidin-5-yl)-6-oxopyridazin-1(6H)-yl)acetamide] |  |  | < 10 µM | IC50 ([2]; Table 5A): > 100 µM
CCNC(=O)Cn1nc(-c2cnc(Nc3ccc(Cl)cc3)nc2)ccc1=O [Compound I-1, 2-(3-(2-((4-chlorophenyl)amino)pyrimidin-5-yl)-6-oxopyridazin-1(6H)-yl)-N-ethylacetamide] |  |  | < 10 µM | IC50 ([2]; Table 5A): > 100 µM
CCNC(=O)Cn1nc(-c2cnc(NC34CC(C3)C4)nc2)ccc1=O [Compound I-59, 2-(3-(2-(bicyclo[1.1.1]pentan-1-ylamino)pyrimidin-5-yl)-6-oxopyridazin-1(6H)-yl)-N-ethylacetamide] |  |  | < 10 µM | IC50 ([2]; Table 5A): > 100 µM
COc1ccc(-c2ccc(=O)n(CC(=O)NC(C)CCc3ccccc3)n2)c(F)c1 (stereo not shown) [IIIb-36, 2-(3-(2-fluoro-4-methoxyphenyl)-6-oxopyridazin-1(6H)-yl)-N-(4-phenylbutan-2-yl)acetamide] | 10 to 100 µM | > 100 µM |  | 
CCNC(=O)Cn1nc(-c2ccc(OC(F)F)cc2)ccc1=O [II-10, 2-(3-(4-(difluoromethoxy)phenyl)-6-oxopyridazin-1(6H)-yl)-N-ethylacetamide] |  |  |  | IC50 ([1]; Table 4B): < 10 µM; IC50 ([2]; Table 5B): > 100 µM
O=C(Cn1nc(-c2ccc(Cl)cc2)ccc1=O)Nc1ccccc1Cl [IIIc-28, N-(2-chlorophenyl)-2-(3-(4-chlorophenyl)-6-oxopyridazin-1(6H)-yl)acetamide] | < 10 µM | 10 to 100 µM |  | 
Cn1ccc2c(NC(=O)Cn3nc(-c4ccc(F)cc4)ccc3=O)cccc21 [IIIc-16, 2-(3-(4-fluorophenyl)-6-oxopyridazin-1(6H)-yl)-N-(1-methyl-1H-indol-4-yl)acetamide] | < 10 µM | > 100 µM |  | 
COc1ccc(-c2ccc(=O)n(CC(=O)Nc3cc(Cl)ccc3Cl)n2)cc1 [IIIb-10, N-(2,5-dichlorophenyl)-2-(3-(4-methoxyphenyl)-6-oxopyridazin-1(6H)-yl)acetamide] | < 10 µM | > 100 µM |  | 
CCNC(=O)Cn1nc(-c2ccc(OC(F)F)[n+]([O-])c2)ccc1=O [Compound I-65, 2-(difluoromethoxy)-5-(1-(2-(ethylamino)-2-oxoethyl)-6-oxo-1,6-dihydropyridazin-3-yl)pyridine 1-oxide] |  |  | > 100 µM | IC50 ([2]; Table 5A): > 100 µM
CCOc1ccc(-c2ccc(=O)n(CC(=O)NCc3ccccc3Cl)n2)cc1 [IIIa-1, N-(2-chlorobenzyl)-2-(3-(4-ethoxyphenyl)-6-oxopyridazin-1(6H)-yl)acetamide] | < 10 µM | > 100 µM |  | 
O=C(Cn1nc(-c2ccc(NC3CCC3)nc2)ccc1=O)NC1CCC1 [Compound I-52, N-cyclobutyl-2-(3-(6-(cyclobutylamino)pyridin-3-yl)-6-oxopyridazin-1(6H)-yl)acetamide] |  |  | < 10 µM | IC50 ([2]; Table 5A): > 100 µM
CC(C)CNC(=O)Cn1nc(-c2ccc(OC(F)F)cc2)ccc1=O [II-13, 2-(3-(4-(difluoromethoxy)phenyl)-6-oxopyridazin-1(6H)-yl)-N-isobutylacetamide] |  |  |  | IC50 ([1]; Table 4B): 10 to 100 µM; IC50 ([2]; Table 5B): > 100 µM
CCNC(=O)Cn1nc(-c2cnc(OCC(F)(F)F)nc2)ccc1=O [Compound I-8, N-ethyl-2-(6-oxo-3-(2-(2,2,2-trifluoroethoxy)pyrimidin-5-yl)pyridazin-1(6H)-yl)acetamide] |  |  | < 10 µM | IC50 ([2]; Table 5A): > 100 µM
COc1ccc(-c2ccc(=O)n(CC(=O)NCCC(C)C)n2)c(F)c1 [IIIb-57, 2-(3-(2-fluoro-4-methoxyphenyl)-6-oxopyridazin-1(6H)-yl)-N-isopentylacetamide] | > 100 µM | > 100 µM |  | 
O=C(Cn1nc(-c2ccc(NC34CC(C3)C4)nc2)ccc1=O)N1CCC1 [Compound I-39, 2-(2-(azetidin-1-yl)-2-oxoethyl)-6-(6-(bicyclo[1.1.1]pentan-1-ylamino)pyridin-3-yl)pyridazin-3(2H)-one] |  |  | 10 to 100 µM | 
O=C(Cn1nc(-c2ccc(NC34CC(C3)C4)nc2)ccc1=O)NC12CC(C1)C2 [Compound I-46, N-(bicyclo[1.1.1]pentan-1-yl)-2-(3-(6-(bicyclo[1.1.1]pentan-1-ylamino)pyridin-3-yl)-6-oxopyridazin-1(6H)-yl)acetamide] |  |  | < 10 µM | 
CCNC(=O)Cn1nc(-c2ccc(N3CC4CC(C3)O4)nc2)ccc1=O [Compound I-43, 2-(3-(6-(6-oxa-3-azabicyclo[3.1.1]heptan-3-yl)pyridin-3-yl)-6-oxopyridazin-1(6H)-yl)-N-ethylacetamide] |  |  | 10 to 100 µM | 
CCNC(=O)Cn1nc(-c2ccc(N3CCCC3C(F)(F)F)nc2)ccc1=O (stereo not shown) [Compound I-48, N-ethyl-2-(6-oxo-3-(6-(2-(trifluoromethyl)pyrrolidin-1-yl)pyridin-3-yl)pyridazin-1(6H)-yl)acetamide] |  |  | < 10 µM | 
CCNC(=O)Cn1nc(-c2cnc(NC34CC(O)(C3)C4)nc2)ccc1=O [Compound I-42, N-ethyl-2-(3-(2-((3-hydroxybicyclo[1.1.1]pentan-1-yl)amino)pyrimidin-5-yl)-6-oxopyridazin-1(6H)-yl)acetamide] |  |  | 10 to 100 µM | 
CC(=O)Nc1ccc(-c2ccc(=O)n(CC(=O)NCc3ccccc3Cl)n2)cc1 [II-8, 2-(3-(4-acetamidophenyl)-6-oxopyridazin-1(6H)-yl)-N-(2-chlorobenzyl) acetamide] |  |  |  | IC50 ([1]; Table 4B): < 10 µM

Source: patent publication US12415794B2 (Edgewise Therapeutics, Inc., priority 2018, dated 2025)
